Data: PubChem BioAssay (NCI)
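Five concentrations, 48 hours, 96-well plates. TGI: concentration producing complete growth inhibition.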

Columns and labels:
Assay in all cases: NCI tumour cell line growth inhibition, 48 h
BT-549 breast = system: BT-549 breast
NCI-H226 lung = system: NCI-H226 lung
SF-268 CNS = system: SF-268 CNS
IGROV1 ovarian = system: IGROV1 ovarian
HS 578T breast = system: HS 578T breast
SK-MEL-2 melanoma = system: SK-MEL-2 melanoma
NCI-H460 lung = system: NCI-H460 lung
RPMI-8226 leukemia = system: RPMI-8226 leukemia
SK-MEL-5 melanoma = system: SK-MEL-5 melanoma
U251 CNS = system: U251 CNS
NCI-H522 lung = system: NCI-H522 lung

| Compound | TGI (BT-549 breast) [µM] | TGI (NCI-H226 lung) [µM] | TGI (SF-268 CNS) [µM] | TGI (IGROV1 ovarian) [µM] | TGI (HS 578T breast) [µM] | TGI (SK-MEL-2 melanoma) [µM] | TGI (NCI-H460 lung) [µM] | TGI (RPMI-8226 leukemia) [µM] | TGI (SK-MEL-5 melanoma) [µM] | TGI (U251 CNS) [µM] | TGI (NCI-H522 lung) [µM] |
| --- | --- | --- | --- | --- | --- | --- | --- | --- | --- | --- | --- |
| O=C1C=C(NCCc2ccc(O)cc2)C(=O)C=C1NCCc1ccc(O)cc1 | > 100 | > 100 | > 100 | > 100 | > 100 | > 100 | > 100 | > 100 | > 100 | 92.5 | > 100 |
| CC(C)(C)OC(=O)/C=C/[C@@H](CCC(=O)/C=C/[C@H](/C=C\CCCC(=O)O)NC1(c2ccccc2)c2ccccc2-c2ccccc21)O[Si](C)(C)C(C)(C)C | 33 | 40.3 | 35.2 | 35.5 | 77.9 | 30.1 | 34.7 | 85.1 | 36.8 | 30.9 | 34.6 |
| COc1ccc(C(CC(=O)c2ccc(O)cc2)C(C(=O)c2ccc(O)cc2)C(c2ccc(OC)cc2)C2C(=O)NC(=S)NC2=O)cc1 (configuration not stated) | 47.9 | 40 | 35.3 | 32.3 | 67.8 | 70.8 | 39.5 | 92.4 | 42.5 | 72.3 | 29.9 |
| COc1ccc([C@H]2C=C(c3cc(F)c(Cl)cc3Cl)N=c3s/c(=C\c4ccc(-c5ccc(Cl)cc5Cl)o4)c(=O)n32)cc1 | > 100 | > 100 | > 100 | > 100 | > 100 | 48.3 | > 100 | > 100 | > 100 | > 100 | > 100 |
| CN1CCN2CCN(C)CCN(CC1)CC2 | > 100 | > 100 | > 100 | > 100 | > 100 | > 100 | > 100 | > 100 | > 100 | > 100 | > 100 |
| O=CC1C(=O)Nc2nc3ccccc3n2C1c1ccccc1 (configuration not stated) | 28.4 | 36.9 | 27 | 27.3 | > 100 | 43.7 | 82.8 | 70.4 | 28.7 | 29.1 | 26.3 |
| c1ccc2c[n+](Cc3ccnc4ccccc34)ccc2c1 | > 100 | > 100 | > 100 | > 100 | > 100 | > 100 | > 100 | > 100 | > 100 | > 100 | > 100 |
